Assay results taken from PubChem BioAssay (NCI).
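Each compound was tested at five concentrations against cells in 96-well plates for 48 hours. At the TGI there is no net growth.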

Columns and labels:
Test in all cases: DTP human tumour cell line panel, 48 h
COLO 205 colon = test system: COLO 205 colon
KM12 colon = test system: KM12 colon
SW-620 colon = test system: SW-620 colon
MCF7 breast = test system: MCF7 breast
UO-31 renal = test system: UO-31 renal
A549 NSCLC = test system: A549 NSCLC
MDA-MB-435 = test system: MDA-MB-435
HCT-15 colon = test system: HCT-15 colon
SK-OV-3 ovarian = test system: SK-OV-3 ovarian
SK-MEL-2 melanoma = test system: SK-MEL-2 melanoma
HCC-2998 colon = test system: HCC-2998 colon
NCI-H23 lung = test system: NCI-H23 lung
OVCAR-8 ovarian = test system: OVCAR-8 ovarian
HOP-62 NSCLC = test system: HOP-62 NSCLC
BT-549 breast = test system: BT-549 breast
PC-3 prostate = test system: PC-3 prostate
SF-539 CNS = test system: SF-539 CNS
OVCAR-4 ovarian = test system: OVCAR-4 ovarian
CAKI-1 renal = test system: CAKI-1 renal
SR leukemia = test system: SR leukemia

SMILES | TGI (COLO 205 colon) [µM] | TGI (KM12 colon) [µM] | TGI (SW-620 colon) [µM] | TGI (MCF7 breast) [µM] | TGI (UO-31 renal) [µM] | TGI (A549 NSCLC) [µM] | TGI (MDA-MB-435) [µM] | TGI (HCT-15 colon) [µM] | TGI (SK-OV-3 ovarian) [µM] | TGI (SK-MEL-2 melanoma) [µM] | TGI (HCC-2998 colon) [µM] | TGI (NCI-H23 lung) [µM] | TGI (OVCAR-8 ovarian) [µM] | TGI (HOP-62 NSCLC) [µM] | TGI (BT-549 breast) [µM] | TGI (PC-3 prostate) [µM] | TGI (SF-539 CNS) [µM] | TGI (OVCAR-4 ovarian) [µM] | TGI (CAKI-1 renal) [µM] | TGI (SR leukemia) [µM]
Cc1c2c(c(C)n1-c1ccccc1)C(=O)N(CCSC(=N)N)C2=O | > 100 | > 100 | > 100 | > 100 | > 100 | > 100 | > 100 | > 100 | > 100 | > 100 | > 100 | > 100 | > 100 | > 100 | > 100 | > 100 | > 100 | > 100 | > 100 | 
Cc1cc2nc(N3C(=O)/C(=C/c4cccc([N+](=O)[O-])c4)N=C3c3ccccc3)sc2cc1C | > 100 | > 100 | > 100 | 43.9 | > 100 | > 100 | 36.5 | > 100 | > 100 | 60 | 53.7 |  | 80.2 | > 100 | > 100 | 56.5 | > 100 | 96.2 | > 100 | 35.1
COC(=O)[C@@H]1C=C[C@@H](C#N)n2c(=O)n(-c3ccccc3)c(=O)n21 | > 100 | 73.2 | > 100 | > 100 | > 100 |  | > 100 | > 100 | > 100 |  | > 100 | > 100 | 57.8 | 56.2 | > 100 |  | 65.3 | > 100 | > 100 | 47.4
CC(CC(=O)CO[C@H]1[C@H](O)[C@@H](O)[C@@H](O)[C@@H]2NC(=O)c3c(cc4c(c3O)OCO4)[C@H]21)OC1OC(CO)C(O)C(O)C1O (some centres not stated) | 1.16 | 1.77 |  | 1.47 | 8.11 | 9.23 | 4.5 | 3.43 | 3.87 | 0.859 | 0.633 | 3.07 | 2.07 | 2.29 | 3.76 | 1.48 | 1.86 | 1.27 | > 100 | 2.22
O=C(O)c1cccc(S(=O)(=O)NN2C(=O)CSC2c2ccccc2)c1 (configuration not stated) | > 100 | > 100 | > 100 | > 100 | > 100 | > 100 | > 100 | > 100 | > 100 | > 100 | > 100 | > 100 | > 100 | > 100 | > 100 | > 100 | > 100 |  | > 100 | > 100
Cc1ccc(S(=O)(=O)N2CCCSCCSCCCSCC2)cc1 | > 100 | > 100 | > 100 | > 100 | > 100 | > 100 | > 100 | > 100 | > 100 |  | > 100 | > 100 | > 100 | > 100 | > 100 | > 100 | > 100 | > 100 |  | > 100
Cc1nc2c(o1)C(=O)c1ccccc1C2=NC1CCCCC1N (configuration not stated) | 3.08 | 3.18 | 1.38 | 0.9 | 3 | 2.91 | 0.302 | 1.84 |  | 2.53 | 3.02 | 0.276 | 1.21 | 2.3 | 1.29 | 3.46 | 1.08 | 1.01 | 3.12 | 
CC[C@@H]1CN2CCC1C[C@@H]2C(O)c1ccnc2ccc(OCCN3CCN(CCOc4ccc5nccc(C(O)[C@@H]6C[C@@H]7CCN6C[C@@H]7CC)c5c4)CC3)cc12 (some centres not stated) | 33.1 | 34 | 55.6 | 31.8 |  | 29.8 | 28 | 56.2 | 33.2 | 37.2 | 26.2 | 43.7 | 42.6 | 36.2 | 40.9 | 30.3 | 36.7 | 40.8 | 32.5 | 
CC1=C2C(=O)O[C@@H](c3ccoc3)[C@]2(C)CCC1=O | > 100 | > 100 | > 100 | > 100 | > 100 | > 100 | > 100 | > 100 | > 100 | > 100 | > 100 | > 100 | > 100 | > 100 | > 100 | > 100 | > 100 |  | > 100 | > 100
O=[N+]([O-])c1cccc(N=C2c3ccccc3CN2c2cccc([N+](=O)[O-])c2)c1 | > 100 | > 100 | > 100 | > 100 | > 100 | > 100 | > 100 | > 100 | > 100 | > 100 | > 100 | > 100 | > 100 | > 100 | > 100 | > 100 | > 100 | > 100 | > 100 | 
O=C(O)C(Cc1ccc2c(c1)CCC2)(Cc1ccc2c(c1)CCC2)C(=O)O | > 100 | > 100 | > 100 | > 100 | > 100 | > 100 | > 100 | > 100 | > 100 | > 100 | > 100 | > 100 | > 100 | > 100 | > 100 | > 100 | > 100 | > 100 |  | > 100
COc1c(Cl)ccc(Cl)c1C(=O)NNC(=O)c1c(Cl)c(Cl)c(Cl)c(Cl)c1-c1nc2ccc(C(=O)c3ccccc3)cc2[nH]1 | > 100 | > 100 | > 100 | > 100 | > 100 | > 100 | > 100 | > 100 | > 100 | > 100 |  | > 100 | > 100 | > 100 | > 100 | > 100 | > 100 | > 100 | > 100 | > 100
CCC1(OC(=O)CN2CCN(CCO)CC2)C(=O)OCc2c1cc1n(c2=O)Cc2cc3ccccc3nc2-1 (configuration not stated) | 15.5 | 4.49 | 10.3 | 2.18 | 0.851 | 29.5 | 4.38 | 26.2 | 14.7 | 9.52 | 6.29 | 2.43 | 16 | 4.55 | 20.4 | > 100 | 1.73 | 17 |  | 0.305
Cc1cn(CC2=NCCN2)c(=O)[nH]c1=O | > 100 | > 100 | > 100 | > 100 | > 100 | > 100 | > 100 | > 100 | > 100 | > 100 | > 100 | > 100 | > 100 | > 100 | > 100 | > 100 |  | > 100 | > 100 | > 100
Cn1c(=O)n2n(c1=O)Cc1cccc3cccc(c13)C2 | > 100 | > 100 | > 100 | > 100 | > 100 | > 100 | > 100 | > 100 | > 100 | > 100 | > 100 | > 100 | > 100 |  | > 100 | > 100 | > 100 | > 100 | > 100 | > 100
Clc1ccccc1/C=C/c1nsc(/C=C/c2ccccc2Cl)n1 | > 100 | > 100 |  | > 100 | > 100 | > 100 | > 100 | > 100 | > 100 | > 100 |  |  | > 100 | > 100 | > 100 | > 100 | > 100 | > 100 | > 100 | 55.6
CC(=O)N1c2ccccc2C(C)(C)OC1C(Cl)(Cl)Cl (configuration not stated) | > 100 | > 100 | > 100 | 94.5 | > 100 | > 100 | > 100 | > 100 | > 100 | > 100 | 74.2 | > 100 | > 100 | > 100 | 81 | > 100 | > 100 | > 100 | > 100 | 
ClC(Cl)(Cl)C1CCOC1n1nc2ccccc2n1 (configuration not stated) | > 100 |  |  | > 100 |  | > 100 | > 100 | > 100 | > 100 | > 100 | > 100 | > 100 | > 100 | > 100 | > 100 | > 100 | > 100 | > 100 | > 100 | > 100
N#C/C(=C1\N=C(c2ccccc2O)Oc2ccccc21)c1ccc([N+](=O)[O-])cc1 | > 100 | > 100 | > 100 | > 100 | > 100 | > 100 | > 100 | > 100 | > 100 | > 100 | > 100 | > 100 | > 100 | > 100 | > 100 | > 100 | > 100 | > 100 | > 100 | 
CN(C)CCOc1ccc(I)cc1Cc1ccccc1 | 26.7 | 27 | 32.4 | 27.5 | 20.4 | 30.5 | 15.4 | 25.1 | 33 | 30.7 | 9.62 | 12.6 | 30.6 | 28.6 | 28.6 | 20.5 | 27.8 | 24.6 |  | 7.81
Cc1cc(C)c(S(=O)(=O)N[C@@H](/C=C(\Br)CO)C(C)C)c(C)c1 | 31.8 | > 100 | > 100 | 59.4 | > 100 | > 100 | 34.1 | > 100 | > 100 | 33.7 | 53.7 | > 100 | > 100 | > 100 | 85.2 | 48.9 | > 100 |  | > 100 | 68.8
COc1cc([C@@H]2c3cc4c(cc3[C@H](OC3OC5COC(C(C)C)OC5C(O)C3O)C3COC(=O)[C@@H]32)OCO4)cc(OC)c1O (some centres not stated) | 19.9 | 39.6 | 22.5 | 16 | 22.3 | 21.8 | 19.2 | 25.9 | 39.1 | 31.5 |  | 15.4 | 25.9 | 24.4 | 15.9 | 14.4 | 8.18 | 37.6 | 19.2 | > 100
O=[N+]([O-])c1ccc(Cl)cc1-n1nc(-c2ccccc2)cc1-c1ccccc1 | > 100 | > 100 | > 100 | > 100 | > 100 | > 100 | > 100 | > 100 | > 100 | > 100 | > 100 | > 100 | > 100 |  | > 100 | > 100 | > 100 | > 100 | > 100 | > 100
Cc1nc(-c2ccccc2)c(C)n2c1nc1ccccc12 | > 100 | > 100 | > 100 | 86.1 | 79.1 | > 100 | 59.5 | 74.5 | 46.3 | 45.9 |  | 40.9 | 70.1 | > 100 | 65.5 | > 100 | > 100 | > 100 | > 100 | 56.2
